What was measured:
A549 cells = test: MTT colorimetric cytotoxicity assay on A549 cells, single drugs and two-drug combinations, with combination index (CompuSyn); format: cell-based; conditions: Homo sapiens, A549, 72 hours, read-out: IC50 value for cancer cell survival
Method: The cancer cell lines (MCF-7, A549 and U-87MG) were cultured as monolayers in Dulbecco's modified Eagle's medium supplemented with 10% (v/v) fetal bovine serum and 1% (v/v) penicillin/streptomycin mixture (10,000 U/mL penicillin and 10 mg/mL streptomycin) in a 100% humidified atmosphere of 5% CO2 and 95% air at 37 °C. […] Cell cultures were kept in the exponential growth phase by regularly passaging cells three times a week with 0.25% trypsin/EDTA mixture.
The cytotoxic activity of the test compounds against cancer cell lines was tested using the standard MTT (3-(4,5-dimethylthiazol-2-yl)-2,5-diphenyltetrazolium bromide) colorimetric assay. […] Briefly, exponentially proliferating cells were seeded into each well of a 96-well microplate (about 5×10^3 cells/well). After 24 hours, test compounds at various concentrations were added to the respective wells, and the cells were incubated for another 72 hours. After incubating the cells with the test compounds, the medium was removed and MTT solution with a final concentration of 0.5 mg/mL was added. After 4 hours of incubation, the MTT solution was replaced with DMSO to dissolve the resulting violet formazan crystals in metabolically viable cells. Plates were gently shaken at room temperature until the formazan was completely dissolved and read at 540 nm using a microplate reader. […] The experiment was repeated at least three times under the same conditions. […] IC50 values were calculated using GraphPad Prism software. […] The test drugs were administered to the cells at the same time.
The combination index (CI) method - a dimensionless quantity used to determine and quantify the type of drug interaction - for binary combinations was calculated using CompuSyn software based on the equation: (CI)x = ((D)1)/((Dx)1) + ((D)2)/((Dx)2) = ((D)1)/((Dm)1 ([(fa)/((1−fa))])^((1)/(m1))) + ((D)2)/((Dm)2 ([(fa)/((1−fa))])^((1)/(m2))) [formula] […]
All data are expressed as mean±standard deviation (SD) and presented as a percentage of control (untreated cells) taken as 100%, n=3 (or more). […]

U-87MG cells = test: MTT colorimetric cytotoxicity assay on U-87MG cells, single drugs and two-drug combinations, with combination index (CompuSyn); format: cell-based, Human; conditions: for IC50: Homo sapiens, single drug, U-87MG, 72 hours, MTT, read-out: IC50 value (cell survival)
Method: Glimepiride and its analogs were first prepared as a stock solution in DMSO, and then the drugs were dissolved fresh in culture medium enriched with Tween 80 (final concentration 0.05%).
Human cancer cells (MCF-7, A549 and U-87MG) and normal endothelial cells (HMEC-1) were obtained from American Type Cell Culture (Rockville, MD). The cancer cell lines (MCF-7, A549 and U-87MG) were cultured as monolayers in Dulbecco's modified Eagle's medium supplemented with 10% (v/v) fetal bovine serum and 1% (v/v) penicillin/streptomycin mixture (10,000 U/mL penicillin and 10 mg/mL streptomycin) in a 100% humidified atmosphere of 5% CO2 and 95% air at 37 °C. Normal endothelial cells (HMEC-1) were cultured in MCDB 131 medium supplemented with 10% (v/v) fetal bovine serum, 10 ng/mL EGF, 1 µg/mL hydrocortisone and 1% (v/v) penicillin/streptomycin solution, in a humidified atmosphere of 5% CO2 and 95% air at 37 °C. Cell cultures were kept in the exponential growth phase by regularly passaging cells three times a week with 0.25% trypsin/EDTA mixture.
(§1) IC50 values were calculated using GraphPad Prism software.
(§2) This equation defines "Synergism" (CI < 1), "Additive effect" (CI = 1) and "Antagonism" (CI > 1).
All data are expressed as mean±standard deviation (SD) and presented as a percentage of control (untreated cells) taken as 100%, n=3 (or more). Sample size was estimated for Type I and Type II statistical errors of […], respectively. Normality of the data was checked with the Shapiro-Wilk test, and the homogeneity of variance was checked with the Levene or Brown-Forsythe test. The significance of differences between pairs of means was estimated using one-way ANOVA and Tukey's post-hoc test. For each analysis, the post-hoc power of the used tests was checked. Statistical power below 80% was considered a null result, and constructive conclusions were not made. All statistics were calculated using […] (StatSoft, USA) or GraphPad Prism software.

MCF-7 cells = test: MTT colorimetric cytotoxicity assay on MCF-7 cells, single drugs and two-drug combinations, with combination index (CompuSyn); format: cell-based, Human; conditions: for IC50: Homo sapiens, MCF7, read-out: IC50 concentration, which inhibits MCF-7 cell proliferation by 50% compared to control cells, single drug, MCF-7, 72 hours, MTT; for effect of the analog in combination with Doxorubicin on the anticancer activity of Doxorubicin: MCF-7, combination with Doxorubicin; for type of drug interaction with Doxorubicin (combination index): MCF-7
Method: as §1, §2

[1] = test system: MDA-MB-231 breast carcinoma cells; conditions: Glibenclamide alone; inhibits G1-S phase progression without cell death or differentiation; cited from earlier work
[2] = Glimepiride analog 100-500 µM in combination with Doxorubicin 0.225, 0.450, 0.900 µM

| SMILES | effect of the analog in combination with Doxorubicin on the anticancer activity of Doxorubicin (MCF-7 cells) | type of drug interaction with Doxorubicin (combination index) (MCF-7 cells; [2]) | other results |
| --- | --- | --- | --- |
| CCCCCOC(=O)Nc1nc(=O)n([C@@H]2O[C@H](C)[C@@H](O)[C@H]2O)cc1F [CAPE, pentyl N-[1-[(2R,3R,4S,5R)-3,4-dihydroxy-5-methyloxolan-2-yl]-5-fluoro-2-oxopyrimidin-4-yl]carbamate] | – | – | IC50 (A549 cells): 60 nM; IC50 (U-87MG cells): 40 nM; IC50 (MCF-7 cells): 180 nM |
| CCCCNC(=O)NS(=O)(=O)c1ccc(N)cc1 [Carbutamide] | beneficial effect | – | – |
| CCCNC(=O)NS(=O)(=O)c1ccc(Cl)cc1 [Chlorpropamide, 1-(4-chlorophenyl)sulfonyl-3-propylurea] | beneficial effect | strong or very strong synergy | – |
| CC(=O)O[C@@]12CO[C@@H]1C[C@H](O)[C@@]1(C)C(=O)[C@H](O)C3=C(C)[C@@H](OC(=O)[C@H](O)[C@@H](NC(=O)OC(C)(C)C)c4ccccc4)C[C@@](O)([C@@H](OC(=O)c4ccccc4)[C@H]21)C3(C)C [DOCE, [(1S,2S,3R,4S,7R,9S,10S,12R,15S)-4-acetyloxy-1,9,12 trihydroxy-15-[(2R,3S)-2-hydroxy-3-[(2-methylpropan-2-yl)oxycarbonylamino]-3 phenylpropanoyl]oxy-10,14,17,17-tetramethyl-11-oxo-6 oxatetracyclo[11.3.1.03,1 0.04, 7]heptadec-13-en-2-yl] benzoate] | – | – | IC50 (A549 cells): 150 nM; IC50 (U-87MG cells): 80 nM; IC50 (MCF-7 cells): 240 nM |
| COc1cccc2c1C(=O)c1c(O)c3c(c(O)c1C2=O)C[C@@](O)(C(=O)CO)C[C@@H]3O[C@H]1C[C@H](N)[C@H](O)[C@H](C)O1 [Doxorubicin, (7S,9S)-7-[(2R,4S,5S,6S)-4-amino-5-hydroxy-6 methyloxan-2-yl]oxy-6,9,11-trihydroxy-9-(2-hydroxyacetyl)-4-methoxy-8,10-dihydro-7H tetracene-5,12-dione] | – | – | U-87MG cell survival (U-87MG cells; 0.52 µM Doxorubicin alone): 75.6% |
| COc1ccc(Cl)cc1C(=O)NCCc1ccc(S(=O)(=O)NC(=O)NC2CCCCC2)cc1 [Glibenclamide] | beneficial effect | strong or very strong synergy | effect in MDA-MB-231 cells [1]: cytostatic effect |
| Cc1ccc(S(=O)(=O)NC(=O)NN2CC3CCCC3C2)cc1 (centres unmarked) [Gliclazide, 1-(3,3a,4,5,6,6a-hexahydro-1H-cyclopenta[c]pyrrol-2-yl)-3-(4-methylphenyl)sulfonylurea] | beneficial effect | strong or very strong synergy | – |
| CCC1=C(C)CN(C(=O)NCCc2ccc(S(=O)(=O)NC(=O)NC3CCC(C)CC3)cc2)C1=O (centres unmarked) [Glimepiride, 4-ethyl-3-methyl-N-[2-[4-[(4-methylcyclohexyl)carbamoylsulfamoyl]phenyl]ethyl]-5-oxo-2H-pyrrole-1-carboxamide] | – | – | IC50 (A549 cells): 389000 ± 4490 nM; IC50 (U-87MG cells): 149000 ± 12200 nM; IC50 (MCF-7 cells): 186000 ± 7020 nM |
| Cc1cnc(C(=O)NCCc2ccc(S(=O)(=O)NC(=O)NC3CCCCC3)cc2)cn1 [Glipizide, N-[2-[4-(cyclohexylcarbamoylsulfamoyl)phenyl]ethyl]-5-methylpyrazine-2-carboxamide] | beneficial effect | – | – |
| COc1ccc2c(c1)C(=O)N(CCc1ccc(S(=O)(=O)NC(=O)NC3CCCCC3)cc1)C(=O)C2(C)C [Gliquidone] | beneficial effect | not every combination of concentrations of Doxorubicin and Gliquidone produce a synergistic effect | type of drug interaction with Doxorubicin (combination index) (MCF-7 cells; 100 µM analog in combination with Doxorubicin 0.225, 0.450, 0.900 µM): additive effect or slight antagonism; type of drug interaction with Doxorubicin (combination index) (MCF-7 cells; other dose combinations (analog above 100 µM) with Doxorubicin): synergistic effects |
| Cc1ccc(S(=O)(=O)NC(=O)NN2CCCCCC2)cc1 [Tolazamide, 1-(azepan-1-yl)-3-(4-methylphenyl)sulfonylurea] | beneficial effect | strong or very strong synergy | – |
| CCCCNC(=O)NS(=O)(=O)c1ccc(C)cc1 [Tolbutamide, 1-butyl-3-(4-methylphenyl)sulfonylurea] | beneficial effect | – | – |

Reference: patent EP4717267A1, “SYNERGISTIC COMBINATION FOR TREATING CANCER” (FUNDACION UNIVERSITARIA SAN ANTONIO (UCAM), priority 2023, dated 2024)
